Test systems include DMS-114; M19-MEL; RXF 631; XF498; DLD-1; KM-20L2; DMS-273; SNB-78; HOP-18.
Holding throughout (assay): NCI anticancer screen, dose series, 48 h

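Interpolation was linear, between the two tested concentrations surrounding the appropriate level; five concentrations were tested over 48 hours in 96-well plates. GI50 marks 50% less growth.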 Active and inactive are the calls of the source. Cut-off read from the data, not from the text of the source: active = GI50 up to about 1.1 µM and inactive = higher.

In the case of `O=C1C2=C(SCCS2)C(=O)c2ccccc21`, the GI50 in the test with DMS-114 is 0.871 µM (active); in the test on M19-MEL it was 0.236 µM (active); with RXF 631 it was 1.82 µM (inactive); in the test on XF498, 1.64 µM (inactive); with DLD-1, 1.96 µM (inactive); with KM-20L2, 1.94 µM (inactive). Besides, the GI50 in the test with DMS-273 was 1.81 µM (inactive).

On to `O=C(N/N=C/c1cc(Br)ccc1O)N/N=C/c1cc(Br)ccc1O`, for which the GI50 with DMS-114 is 1.18 µM (inactive); with M19-MEL it was > 100 µM (inactive); with RXF 631, 14.2 µM (inactive); in the test on XF498, 2.19 µM (inactive); with DLD-1 it was 2.9 µM (inactive); with KM-20L2, 4.85 µM (inactive). Moreover, in the test with DMS-273, the GI50 was 0.791 µM (active).

As for `CSc1ccc(Cc2cc(C(C)(C)C)cc(C(C)(C)C)c2O)cc1`, the GI50 is 13 µM (inactive) in the test with DMS-114; 16.8 µM (inactive) with M19-MEL; 14.9 µM (inactive) in the test on SNB-78; 14.9 µM (inactive) in the test with RXF 631; 17.8 µM (inactive) with XF498; 13.8 µM (inactive) with DLD-1. Further, the figures for the GI50 in the test on KM-20L2, in the test with HOP-18 and in the test on DMS-273 were 14.6 µM (inactive), 19.6 µM (inactive) and 13.7 µM (inactive), respectively.

For the compound `C=CCN(N=O)C(=O)N(CCCCC(NC(C)=O)C(=O)NCc1ccccc1)Cc1ccccc1` (stereo unspecified), the GI50 in the test with DMS-114 was 27.7 µM (inactive); in the test on M19-MEL it was 35.2 µM (inactive); in the test with RXF 631, 32.5 µM (inactive); with XF498, 36.1 µM (inactive); in the test on KM-20L2, 18.9 µM (inactive); with HOP-18, 23 µM (inactive). Besides, in the test with DMS-273, the GI50 was 41.1 µM (inactive).

On to `O=C1NC(=O)C2C(=O)NC(=O)C1C2(c1ccccc1)c1cc[nH]c1` (stereo unspecified), for which the GI50 in the test with DMS-114, with M19-MEL, with SNB-78, in the test on XF498, in the test with DLD-1 and in the test on DMS-273 was > 100 µM (inactive) each time.

For the compound `Cc1ccc(S(=O)(=O)N/N=C(\CCN2CCCC2)CC(c2ccccc2)c2c(O)c3ccccc3oc2=O)cc1` (stereo unspecified), the GI50 in the test on M19-MEL, in the test on SNB-78, in the test with RXF 631, in the test on XF498, in the test on DLD-1 and with KM-20L2 was > 100 µM (inactive) each time. For the same compound, the GI50 with HOP-18 is > 100 µM (inactive).

With `CC(C)(C)C1=Cc2cc3cc(C(C)(C)C)[nH]c(=O)c3cc2S(=O)(=O)N1`, the GI50 in the test with DMS-114 is 21.4 µM (inactive); in the test on M19-MEL, 19.7 µM (inactive); with SNB-78, 42.1 µM (inactive); with DLD-1 it was 31.7 µM (inactive).

As for `CCOC(=O)/C(C(=O)c1ccccc1)=C1\N[C@H](C(=O)OCC)CS1`, the GI50 in the test with SNB-78 was > 100 µM (inactive); in the test on RXF 631, > 100 µM (inactive); in the test with XF498, > 100 µM (inactive); in the test with DLD-1, > 100 µM (inactive); in the test with KM-20L2 it was > 100 µM (inactive); in the test on HOP-18, 16.3 µM (inactive).

Take `CC1CC(c2ccc(Cl)cc2)=Nc2ccccc2S1` (stereo unspecified): the GI50 in the test with DMS-114, with M19-MEL, with SNB-78, in the test with RXF 631, in the test with DLD-1 and with KM-20L2 was > 100 µM (inactive) in each case.

As to `O=C(CCC(=O)Nc1ccc(Cl)cc1)CC(=O)c1ccc(F)cc1`, the GI50 in the test with SNB-78, in the test with XF498, with DLD-1, in the test with KM-20L2 and in the test on DMS-273 was > 100 µM (inactive) each time.

For the compound `CCN1CCN(c2ccc(Nc3ccnc4ccc5nn(C)nc5c34)cc2)CC1`, the GI50 in the test with DMS-114 was 10.1 µM (inactive); with M19-MEL it was 16.1 µM (inactive); in the test with SNB-78, 14.2 µM (inactive); with RXF 631, 10 µM (inactive); in the test on XF498, 13.9 µM (inactive); in the test with DLD-1, 11.6 µM (inactive). Further, in the test on KM-20L2, the GI50 is 8.36 µM (inactive).

For `O=C1CC[C@H]2CNC(=O)C[C@H]2C1`, the GI50 in the test with M19-MEL, with SNB-78, in the test with RXF 631, with XF498, in the test with DLD-1 and in the test with DMS-273 was > 100 µM (inactive) throughout.

Consider `O=C(Cc1ccccc1[N+](=O)[O-])C(CO)c1ccccc1[N+](=O)[O-]` (stereo unspecified), for which the GI50 in the test on DMS-114 is 67.1 µM (inactive); with M19-MEL it was 95.9 µM (inactive); in the test with SNB-78, > 100 µM (inactive); in the test on XF498, 20.8 µM (inactive); with DLD-1, > 100 µM (inactive); in the test with KM-20L2, > 100 µM (inactive). Besides, the GI50 with HOP-18 was 4.17 µM (inactive); in the test on DMS-273, > 100 µM (inactive).

Consider `O=C1C(=O)N(c2cccc(C(F)(F)F)c2)C(=O)C(=O)C1c1nc2ccccc2s1`, for which the GI50 with DMS-114 was 45.8 µM (inactive); in the test with M19-MEL it was 45.1 µM (inactive); in the test with SNB-78, > 100 µM (inactive); in the test with RXF 631, 88.1 µM (inactive); in the test with XF498, > 100 µM (inactive); in the test on DLD-1, 74.3 µM (inactive). Moreover, the GI50 was > 100 µM (inactive) in the test on KM-20L2, 63.7 µM (inactive) with HOP-18 and > 100 µM (inactive) in the test with DMS-273.

With `O=C(O)CCc1nn2c(nc1=O)sc1ccc3ccccc3c12`, the GI50 in the test with DMS-114, in the test on M19-MEL, in the test on SNB-78, in the test on RXF 631, in the test on XF498 and with DLD-1 was > 100 µM (inactive) in each case. Moreover, the GI50 in the test with KM-20L2, with HOP-18 and with DMS-273 was > 100 µM (inactive) in each case.

Regarding `COC1OC(OC)C2C(c3c(C)cc(C)cc3C)=NOC12` (stereo unspecified), the GI50 with M19-MEL, with SNB-78, with XF498, in the test on DLD-1, in the test on KM-20L2 and with HOP-18 was > 100 µM (inactive) in each case. Also, the GI50 with DMS-273 is > 100 µM (inactive).

Consider `CSc1nc(NC2OC(COC(C)=O)C(OC(C)=O)C(OC(C)=O)C2OC(C)=O)c(/N=C\C=N/c2c(NC3OC(COC(C)=O)C(OC(C)=O)C(OC(C)=O)C3OC(C)=O)nc(SC)n(C)c2=O)c(=O)n1C` (stereo unspecified), for which the GI50 in the test with DMS-114 is > 100 µM (inactive); with M19-MEL, > 100 µM (inactive); in the test on SNB-78, 31.7 µM (inactive); in the test with RXF 631, 51.8 µM (inactive); with XF498 it was 15.6 µM (inactive); in the test on DLD-1, > 100 µM (inactive). For the same compound, the values for the GI50 in the test with KM-20L2, in the test with HOP-18 and in the test on DMS-273 were > 100 µM (inactive), > 67.1 µM (inactive) and > 100 µM (inactive), respectively.

On to `COC(=O)/C(=N\Nc1nnc(C)n1N)C(C#N)c1ccc(Cl)cc1` (stereo unspecified), for which the GI50 in the test on DMS-114 was 58.1 µM (inactive); in the test with M19-MEL, > 100 µM (inactive); in the test with SNB-78, > 100 µM (inactive); in the test on XF498, > 100 µM (inactive); with DLD-1, > 100 µM (inactive); in the test on KM-20L2, > 100 µM (inactive). Further, the GI50 in the test on HOP-18 and in the test on DMS-273 was > 100 µM (inactive) throughout.

On to `N#CC(C(=O)/C(=N\Nc1nc(S)nn1N)C(C#N)c1ccc(Cl)cc1)c1ccc(Cl)cc1` (stereo unspecified), for which the GI50 in the test on DMS-114, in the test on M19-MEL, in the test on SNB-78, in the test with XF498, in the test on DLD-1 and in the test with KM-20L2 was > 100 µM (inactive) in each case. Also, the GI50 in the test on HOP-18 and with DMS-273 was > 100 µM (inactive) each time.

For `O=C(/C=C/c1ccc(-c2ccccc2)cc1)c1ccccc1`, the GI50 in the test on DMS-114 is 14.6 µM (inactive); in the test with M19-MEL, 24 µM (inactive); in the test on SNB-78, 29 µM (inactive); with RXF 631, 25.2 µM (inactive); in the test with XF498, 25.2 µM (inactive); in the test with DLD-1, 26.3 µM (inactive). Also, in the test on HOP-18, the GI50 was > 100 µM (inactive).

For the compound `CCC/C(=N/NC(=O)C(N)=O)C(CC)C(=O)CCC(=O)N(Cc1ccccc1)Cc1ccccc1` (stereo unspecified), the GI50 in the test on DMS-114, in the test on M19-MEL, with SNB-78, in the test on RXF 631, in the test on XF498 and in the test with KM-20L2 was > 100 µM (inactive) each time. Moreover, the GI50 in the test with HOP-18 and in the test on DMS-273 was > 100 µM (inactive) in each case.

Consider `COc1ccc(/C=N\N2C(=O)Cc3ccccc32)cc1`, for which the GI50 in the test on M19-MEL is > 100 µM (inactive); in the test with SNB-78 it was 91.2 µM (inactive); in the test with XF498, 27.4 µM (inactive); in the test with DLD-1, > 100 µM (inactive); in the test on KM-20L2, > 100 µM (inactive); with HOP-18, > 100 µM (inactive). In addition, the GI50 with DMS-273 was > 100 µM (inactive).

Regarding `Cc1cccc2c(=O)cc(-c3ccccc3)[nH]c12`, the GI50 in the test on DMS-114 was 3.95 µM (inactive); in the test with M19-MEL, 4.61 µM (inactive); with XF498 it was 3.01 µM (inactive); in the test with DLD-1 it was 4.31 µM (inactive); in the test with KM-20L2 it was 4.07 µM (inactive); in the test with DMS-273 it was 3.57 µM (inactive).

As to `COc1ccc2c3c([nH]c2c1[N+](=O)[O-])C(C)=NCC3`, the GI50 is > 100 µM (inactive) in the test on DMS-114; > 100 µM (inactive) with SNB-78; > 100 µM (inactive) in the test with RXF 631; 99.1 µM (inactive) in the test with DLD-1; 69.3 µM (inactive) in the test on KM-20L2; 41.7 µM (inactive) in the test with DMS-273.

In the case of `COc1ccc(C(C#N)Cc2cc(OC)c(OC)c(OC)c2)cc1` (stereo unspecified), the GI50 was 17.4 µM (inactive) in the test with DMS-114; 29.9 µM (inactive) in the test on M19-MEL; 39.8 µM (inactive) in the test with SNB-78; 35.6 µM (inactive) in the test on RXF 631; 45.7 µM (inactive) in the test on DLD-1; > 100 µM (inactive) in the test on HOP-18. The GI50 with DMS-273 was 7.16 µM (inactive).

The values are drawn from ChEMBL document CHEMBL1201862, “PubChem BioAssay data set” (2004).
